Structures are written as SMILES. Active and inactive are the calls of the source. No cut-off for these calls is given here. Bounds are passed on as bounds.

In data set [1] the test system is Mus musculus. Briefly: Antiulcer activity in indomethacin-induced Balb/c mouse model of gastric ulcer assessed as mean ulcer index at 50 mg/kg, po pre-administered with compound for 30 mins followed by indomethacin administration and measured after 4 hrs (reference value: 52.5 +/- 1.4). The class given is functional. The conditions noted are these: time 4.5 hrs.

Data set [2] concerns Mus musculus. Nature of the data set: Antiulcer activity in indomethacin-induced Balb/c mouse model of gastric ulcer assessed as inhibition of ulceration at 50 mg/kg, po pre-administered with compound for 30 mins followed by indomethacin administration and measured after 4 hrs relative to control. The format is functional. The conditions noted are these: time 4.5 hrs.
Data set [3] can be described thus: Tmax in Sprague-Dawley rat at 250 mg/kg, po administered via gavage by HPLC analysis. As to conditions: in vivo. The format is ADME, organism-based.
Data set [4] is described as follows: AUC in Sprague-Dawley rat at 250 mg/kg, po administered via gavage by HPLC analysis. The format is ADME, organism-based. On the set-up: dose 250 mg/kg, route po. The conditions noted are these: in vivo.
The nature of data set [5]: Toxicity in Balb/c mouse assessed as mortality at 150 to 300 mg/kg, po administered via gavage for 25 days. The conditions noted are these: in vivo, 600 h, dose 150-300 mg/kg, time 25 day. The class given is organism-based.
Data set [6] in a line: Toxicity in Balb/c mouse assessed as lethargy at 150 to 300 mg/kg, po administered via gavage for 25 days. The format is organism-based. The conditions noted are these: in vivo, 600 h, dose 150-300 mg/kg, time 25 day.
Data set [7] in a line: Toxicity in Balb/c mouse assessed as abdominal distension at 150 to 300 mg/kg, po administered via gavage for 25 days. The format is organism-based. As to conditions: in vivo, 600 h, dose 150-300 mg/kg, time 25 day.
The nature of data set [8]: Toxicity in Balb/c mouse assessed as fur loss at 150 to 300 mg/kg, po administered via gavage for 25 days. The class given is organism-based. The conditions noted are these: in vivo, 600 h, dose 150-300 mg/kg, time 25 day.
The nature of data set [9]: Toxicity in Balb/c mouse assessed as hunching at 150 to 300 mg/kg, po administered via gavage for 25 days. The format is organism-based. As to conditions: in vivo, 600 h, dose 150-300 mg/kg, time 25 day.
Data set [10] is described as follows: Toxicity in Balb/c mouse assessed as effect on body weight at 150 to 300 mg/kg, po administered via gavage for 25 days. The class given is organism-based. The conditions noted are these: in vivo, 600 h, dose 150-300 mg/kg, time 25 day.
Data set [11] concerns the target T1, Prostaglandin G/H synthase 2 (Homo sapiens, UniProt P35354).
T1 sequence (P35354 whole entry): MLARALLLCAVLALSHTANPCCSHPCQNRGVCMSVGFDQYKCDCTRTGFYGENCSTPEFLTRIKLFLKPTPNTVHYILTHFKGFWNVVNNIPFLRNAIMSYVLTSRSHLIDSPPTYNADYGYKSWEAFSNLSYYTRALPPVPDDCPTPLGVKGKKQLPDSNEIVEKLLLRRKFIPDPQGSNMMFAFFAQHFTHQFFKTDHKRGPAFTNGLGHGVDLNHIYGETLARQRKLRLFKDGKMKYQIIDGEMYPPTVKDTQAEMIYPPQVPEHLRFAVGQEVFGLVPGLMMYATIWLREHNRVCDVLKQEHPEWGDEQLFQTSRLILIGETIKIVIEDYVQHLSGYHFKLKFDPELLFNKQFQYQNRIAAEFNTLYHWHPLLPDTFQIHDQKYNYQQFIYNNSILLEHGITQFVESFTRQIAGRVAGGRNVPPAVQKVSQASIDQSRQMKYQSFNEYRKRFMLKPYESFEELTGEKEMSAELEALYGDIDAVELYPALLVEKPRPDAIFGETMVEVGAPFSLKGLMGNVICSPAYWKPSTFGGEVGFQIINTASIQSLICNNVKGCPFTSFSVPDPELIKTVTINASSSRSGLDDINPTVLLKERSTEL
Nature of the data set: Inhibition of COX2 (unknown origin) preincubated with compound for 5 mins followed by substrate addition and measured after 5 mins by fluorescence spectrophotometer analysis.

Data set [12] has as its target 72 kDa type IV collagenase (Homo sapiens) (UniProt P08253). Nature of the data set: Inhibition of MMP-2 (unknown origin) upto 500 uM incubated for 3 hrs by SDS-PAGE analysis.
The test system of data set [13] is Mus musculus. Nature of the data set: Antiulcer activity in indomethacin-induced Balb/c mouse model of gastric ulcer assessed as reduction in gastric tissue injury at 50 mg/kg, po pre-administered with compound for 30 mins followed by indomethacin administration and measured after 4 hrs by H&E staining based analysis. The format is functional, organism-based. The conditions noted are these: time 4.5 hrs.

Data set [14] relates to Mus musculus. Briefly: Antiulcer activity in indomethacin-induced Balb/c mouse model of gastric ulcer assessed as prevention of inflammatory cell infiltration at 50 mg/kg, po pre-administered with compound for 30 mins followed by indomethacin administration and measured after 4 hrs by H&E staining based analysis relative to control. The format is functional. The conditions noted are these: time 4.5 hrs.

Data set [15] relates to Mus musculus. Briefly: Antiulcer activity in indomethacin-induced Balb/c mouse model of gastric ulcer assessed as reduction in mucosal injury at 50 mg/kg, po pre-administered with compound for 30 mins followed by indomethacin administration and measured after 4 hrs by H&E staining based analysis relative to control. The class given is functional. On the set-up: scale not given: the % may be the effect or the level left. As to conditions: time 4.5 hrs.

The test system of data set [16] is Mus musculus. Nature of the data set: Antiulcer activity in indomethacin-induced Balb/c mouse model of gastric ulcer assessed as inflammatory cell infiltration at 50 mg/kg, po pre-administered with compound for 30 mins followed by indomethacin administration and measured after 4 hrs by H&E staining based analysis (reference value: 147 +/- 5.2%). The class given is functional. As to conditions: time 4.5 hrs.

In data set [17] the test system is Mus musculus. Nature of the data set: Antiulcer activity in indomethacin-induced Balb/c mouse model of gastric ulcer assessed as cell injury in mucosa at 50 mg/kg, po pre-administered with compound for 30 mins followed by indomethacin administration and measured after 4 hrs by H&E staining based analysis (reference value: 70+/- 6.5 %). The format is functional. As to conditions: time 4.5 hrs.

Data set [18] deals with Mus musculus. Nature of the data set: Antiulcer activity in indomethacin-induced Balb/c mouse model of gastric ulcer assessed as inhibition of gastric mucosal apoptosis at 50 mg/kg, po pre-administered with compound for 30 mins followed by indomethacin administration and measured after 4 hrs by TUNEL assay. The format is functional, organism-based. As to conditions: time 4.5 hrs.

The target of data set [19] is T2, Matrix metalloproteinase-9 (Homo sapiens, UniProt P14780). Briefly: Inhibition of human MMP-9 at 500 uM incubated for 3 hrs by SDS-PAGE based gelatin zymography analysis.
Data set [20] concerns the target T2, Matrix metalloproteinase-9. Nature of the data set: Inhibition of human MMP-9 incubated for 3 hrs by SDS-PAGE based gelatin zymography analysis.
For data set [21], the system named is Mus musculus. Nature of the data set: Antioxidant activity in indomethacin-induced Balb/c mouse model of gastric ulcer assessed as lipid peroxidation by measuring TBARS activity in stomach at 50 mg/kg, po pre-administered with compound for 30 mins followed by indomethacin administration and measured after 4 hrs by TBARS assay (reference value: 1.40 +/- 0.03 nmol/mg). The format is functional. The conditions noted are these: time 4.5 hrs.

In data set [22] the test system is Mus musculus. Briefly: In vivo inhibition of MMP-9 expression in indomethacin-induced Balb/c mouse model of gastric ulcer at 50 mg/kg, po pre-administered with compound for 30 mins followed by indomethacin administration and measured after 4 hrs by PI staining based immunofluorescence analysis. The class given is functional, organism-based. The conditions noted are these: time 4.5 hrs.

In data set [23] the test system is Mus musculus. Nature of the data set: In vivo inhibition of MMP-9 activity in indomethacin-induced Balb/c mouse model of gastric ulcer at 50 mg/kg, po pre-administered with compound for 30 mins followed by indomethacin administration and measured after 4 hrs by SDS-PAGE based gelatin zymography method. The class given is functional, organism-based. The conditions noted are these: time 4.5 hrs.

Data set [24] concerns Mus musculus. Nature of the data set: Antiulcer activity in indomethacin-induced Balb/c mouse model of gastric ulcer assessed as intact epithelial layer in gastric tissue at 50 mg/kg, po pre-administered with compound for 30 mins followed by indomethacin administration and measured after 4 hrs by H&E staining based analysis. The class given is functional, organism-based. As to conditions: time 4.5 hrs.

Data set [25] has as its system Mus musculus. Briefly: Antiulcer activity in indomethacin-induced Balb/c mouse model of gastric ulcer assessed as mean ulcer index at 12 mg/kg, po pre-administered with compound for 30 mins followed by indomethacin administration and measured after 4 hrs (reference value: 52.5 +/- 1.4). The format is functional. The conditions noted are these: time 4.5 hrs.
Data set [26] relates to Mus musculus. Briefly: Antiulcer activity in indomethacin-induced Balb/c mouse model of gastric ulcer assessed as inhibition of ulceration at 12 mg/kg, po pre-administered with compound for 30 mins followed by indomethacin administration and measured after 4 hrs relative to control. The conditions noted are these: time 4.5 hrs. The format is functional.

T2 sequence (P14780 whole entry): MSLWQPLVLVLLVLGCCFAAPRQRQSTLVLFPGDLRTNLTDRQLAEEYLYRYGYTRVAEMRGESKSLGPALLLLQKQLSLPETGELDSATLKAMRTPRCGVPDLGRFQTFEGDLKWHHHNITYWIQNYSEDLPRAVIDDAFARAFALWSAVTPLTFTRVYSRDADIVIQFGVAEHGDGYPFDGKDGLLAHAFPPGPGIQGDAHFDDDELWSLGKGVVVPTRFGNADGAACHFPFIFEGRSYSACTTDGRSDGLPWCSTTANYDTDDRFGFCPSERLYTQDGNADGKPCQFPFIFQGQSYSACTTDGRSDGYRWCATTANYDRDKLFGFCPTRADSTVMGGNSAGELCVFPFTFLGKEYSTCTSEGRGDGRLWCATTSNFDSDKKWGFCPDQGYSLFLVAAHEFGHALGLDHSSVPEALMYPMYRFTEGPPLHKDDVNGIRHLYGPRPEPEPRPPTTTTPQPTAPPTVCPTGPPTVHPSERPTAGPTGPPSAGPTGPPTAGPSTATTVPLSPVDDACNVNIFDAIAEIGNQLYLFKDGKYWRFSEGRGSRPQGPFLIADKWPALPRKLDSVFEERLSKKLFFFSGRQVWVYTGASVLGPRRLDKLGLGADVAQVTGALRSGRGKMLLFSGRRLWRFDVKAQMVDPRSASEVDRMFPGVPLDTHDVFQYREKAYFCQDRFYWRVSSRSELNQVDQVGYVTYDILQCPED
Sequence of 72 kDa type IV collagenase (Homo sapiens) (P08253 110-660 limits assumed): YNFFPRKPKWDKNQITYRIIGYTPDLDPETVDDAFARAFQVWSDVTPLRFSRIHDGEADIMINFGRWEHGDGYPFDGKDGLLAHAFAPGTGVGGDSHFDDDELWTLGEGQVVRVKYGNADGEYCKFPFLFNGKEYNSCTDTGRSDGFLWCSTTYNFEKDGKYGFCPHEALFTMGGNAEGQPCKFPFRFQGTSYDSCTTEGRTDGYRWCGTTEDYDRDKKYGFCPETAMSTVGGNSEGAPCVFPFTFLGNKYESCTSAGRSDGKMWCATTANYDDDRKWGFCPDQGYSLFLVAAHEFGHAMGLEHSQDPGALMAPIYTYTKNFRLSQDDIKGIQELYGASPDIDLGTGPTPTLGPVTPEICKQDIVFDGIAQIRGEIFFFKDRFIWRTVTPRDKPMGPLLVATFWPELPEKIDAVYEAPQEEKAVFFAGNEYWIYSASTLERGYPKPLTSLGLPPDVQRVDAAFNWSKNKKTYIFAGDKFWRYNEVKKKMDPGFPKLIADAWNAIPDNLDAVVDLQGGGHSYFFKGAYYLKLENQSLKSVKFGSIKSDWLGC

Consider `COc1ccc2[nH]cc(-c3cc(-c4ccccc4)oc3-c3ccccc3)c2c1`, for which, in the data set on Mus musculus [1], the UI was 9. The inhibition in vivo at 50 mg/kg with Mus musculus [2] came out at 83%.

For the compound `COc1cccc2[nH]cc(-c3cc(-c4ccccc4)oc3-c3ccccc3)c12`, the UI in the data set with Mus musculus [1] worked out at 2.5. For the same compound, the inhibition in vivo at 50 mg/kg with Mus musculus [2] is 95%. For the same compound, the Tmax in data set [3] was 6 h. The compound further gave an exposure (AUC) in data set [4] of 1270 µg·h/mL. In addition, the Activity entry in data set [5], in data set [6], in [7], in [8], in data set [9] and in data set [10] was “Non-Toxic” throughout. Moreover, the Activity is 100% with Mus musculus [14]; about 90% in the data set on Mus musculus [15]; 92% in the data set on Mus musculus [16]; 12% in the data set with Mus musculus [17]; 0.47 nmol/mg in the data set with Mus musculus [21]. Besides, the figures for the IC50 in [11] and in data set [20] were over 100 µM and about 50 µM, respectively. Moreover, in data set [12], the inhibition result is “inactive”. Also, the outcome with Mus musculus [13], in the data set on Mus musculus [18] and in the data set on Mus musculus [24] was Active. Moreover, the inhibition result (in data set [19]; in the data set with Mus musculus [22]; with Mus musculus [23]) was “Active” in each case.

For `COc1ccc2[nH]c([S+]([O-])Cc3ncc(C)c(OC)c3C)nc2c1` (stereo not given) [OMEPRAZOLE], the UI with Mus musculus [25] was 0.5. Further, the inhibition in vivo at 12 mg/kg in the data set with Mus musculus [26] is 100%.

Regarding `COc1cccc2c1c(-c1cc(-c3ccccc3)oc1-c1ccccc1)cn2C`, the UI in the data set with Mus musculus [1] stood at 23.25. Also, the inhibition in vivo at 50 mg/kg with Mus musculus [2] worked out at 56%.

Regarding `Oc1ccc2[nH]cc(-c3cc(-c4ccccc4)oc3-c3ccccc3)c2c1`, the UI in the data set with Mus musculus [1] was 11.5. The inhibition in vivo at 50 mg/kg in the data set on Mus musculus [2] came to 78%.

For the compound `c1ccc(-c2cc(-c3c[nH]c4ccccc34)c(-c3ccccc3)o2)cc1`, the UI with Mus musculus [1] stood at 20.2. In addition, the inhibition in vivo at 50 mg/kg in the data set with Mus musculus [2] came to 62%.

As to `Oc1ccccc1-c1[nH]c2ccccc2c1-c1cc(-c2ccccc2)oc1-c1ccccc1`, the UI in the data set with Mus musculus [1] is recorded as 14.5. In the data set on Mus musculus [2], the inhibition in vivo at 50 mg/kg is 72%.

In the case of `c1ccc(-c2cc(-c3c(-c4ccccc4)[nH]c4ccccc34)c(-c3ccccc3)o2)cc1`, the UI in the data set with Mus musculus [1] was found to be 18.25. For the same compound, the inhibition in vivo at 50 mg/kg in the data set with Mus musculus [2] was 65%.

As for `COc1ccc2[nH]cc(-c3cc(-c4ccccc4)oc3-c3ccccc3)c2c1OC`, the UI in the data set with Mus musculus [1] is listed as 13.5. Also, the inhibition in vivo at 50 mg/kg in the data set on Mus musculus [2] came to 74%.
